In patent US7169785B2, “Methods and compositions of novel triazine compounds” (Reddy US Therapeutics, Inc., priority 2001, dated 2007):
Entries after “also recorded” stand apart in the source; their conditions may differ. Blank lines part the entries; values can stand above or below the molecule they belong to.

Legend:
[1] = test system: cells; assay: Cytotoxicity / lactate dehydrogenase assay and visual observation of cells; format: cell-based
Protocol: Assays for determining the activity of compounds capable of cytotoxic activity include those taught in herein and others that are well known in the art. In general, to determine if there is cytotoxic activity associated with a compound, cells of a particular type, in a growing stage or a quiescient stage, are treated with the compound of interest. Various parameters of cell death or cessation are used to measure the effects of the compound. For example, the amount of nucleic acid or protein synthesis can be measured or visual observation of the state of the cells, such as release from the substrate, can be used to measure the state of the cells.
An appropriate number of cells are plated in four 96-well plates, one plate for “day 0” and three plates for days 1–3. Cells are treated with at least one compound of the present invention in varying concentrations with and without the apoptosis inducer cisplatin (2 μM) (“+cis” or “−cis”). Unteated cells are also assayed with and without cisplatin. After transfection, the plates are incubated at 37° C. overnight.
An appropriate number of cells are plated in four 96-well plates, one plate for “day 0” and three plates for days 1–3. Cells are treated with at least one compound of the present invention in varying concentrations. The negative control cells have normal media conditions, a duplicate set of wells is treated with the composition in which the compound is provided, but there is no added compound and the positive control cells are treated with the apoptosis inducer cisplatin (2 μM). All of the cells are transfected with a vector having a promoter that is responsive to apoptosis conditions. When apoptosis occurs, the promoter is turned on and the lactic dehydrogenase gene is activated and the enzyme protein is made and active. Activity is easily detected with a color change. After transfection, the plates are incubated at 37° C. overnight.
About 8 mls of warmed alpha MEM LDH lysis buffer (2% Triton X100) and about 8 mls of culture media (½ dilution) are combined. Two 96-well v-bottom plates are prepared, one labeled “lysis” and one labeled “supernatant.” To lyse the cells, about 200 μl Alpha MEM lysis buffer (diluted ½) is added to one test plate from which the supernatant has been removed and added to the plate labeled supernatant. After mixing, about 200 μl of lysed cells are transferred to the lysis plate. Both the lysis and supernatant plates are centrifuged at about 1600 rpm for about 10 min. After centrifugation, about 100 μl of both the supernatant or lysate is transferred to corresponding 96-well flat-bottomed plates.
The assay for cytotoxicity uses the Cytotoxicity Detection Kit (LDH) from Roche Diagnostics Corp. (Indianapolis, Ind.). Using the directionts provided, the dye solution is mixed and added each well of the lysate and supernatant plate and incubated for up to 20–25 min at 15–25° C. in the dark.

[2] = test system: IL6; assay: Inflammation Data of Table 8: IL6 production compared to cells that did not receive compound (stimulus AGE or TNF not given); format: cell-based
Description: Additional bioactivity data for compounds of the present invention are presented in Table 8, where compounds that have at least the activity of effecting cellular proliferation or at least the activity of modulating inflammation activity, as measured by the assays taught herein, are provided. […] The inclusion of compounds in the categories of the Tables disclosed herein, including this Table, is not to be seen as limiting, in that compounds included in such Tables have at least the activity shown for inclusion in the Table and may have more or other activities. Nor are the Tables to be seen as limiting in that these are the only compounds disclosed herein that have that activity, representative compounds are shown in the Tables that have at least that particular activity for inclusion in the Table. One or more compounds disclosed herein have at least an activity that has utility in treatment of disease states. Note that any hydrogen atoms that are required for any atom to attain its usual valence in a structure presented in Table 8, whether a carbon atom or a heteroatom, should be inferred if it is not specifically indicated.

[3] = test system: Human aortic smooth muscle cells; assay: Smooth muscle cell proliferation assay (anti-proliferation assay, perlecan); format: cell-based; conditions: for IC50: Homo sapiens, read-out: Proliferation Data, average IC50
Protocol: Human aortic smooth muscle cells (Clonetics) were used. Cells were grown in basal medium containing 5% fetal bovine serum supplemented with growth factors, basic fibroblast growth factor, epidermal growth factor and insulin. […] The cells were then serum starved for 24 h to induce quiescence. Fresh growth medium containing no compound or 10 μM compound was then added and further incubated for 24 h. Cell number was determined by using a cell proliferation assay kit (Celltiter96 AQueous from Promega).

[4] = observed in the proliferation assay

- melting point: 81 °C
SMILES: COc1ccc(Nc2nc(NN3CCCCCC3)nc(N(C)C3CCNCC3)n2)cc1Cl

SMILES: COc1ccc(Nc2nc(NC3CCCCCC3)nc(N3CCCC3CO)n2)cc1Cl (centres unmarked)
- cell morphology change / cell death observed under Proliferation Data (words with concentration) [1, 4]: rounding
- Inflammation Data (result in words) ([2]; concentration not given): Not Active
- Proliferation Data (result in words) ([3]; 5 & 10 uM screens): Did not pass

SMILES: COc1ccc(Nc2nc(NC3CCCCCC3)nc(N3CCN(C)CC3)n2)cc1Cl
- cell death under Inflammation Data ([1]; at 5 uM): 25%
- cell death under Inflammation Data ([1]; at 10 uM): total cell death
- cell morphology change / cell death observed under Proliferation Data (words with concentration) [1, 4]: blunting androunding
- inhibition at 10 µM ([2]; at 10 uM): 75%
- Proliferation Data (result in words) ([3]; 5 & 10 uM screens): Did not pass

SMILES: CCc1occc(=O)c1Oc1nc(Nc2ccc(OC)c(Cl)c2)nc(NC2CCCCCC2)n1
- cell death under Inflammation Data ([1]; at 10 uM): 20%
- inhibition at 10 µM ([2]; at 10 uM): 48%
- Proliferation Data (result in words) ([3]; 5 & 10 uM screens): Not active at 5 & 10 uM

SMILES: COc1ccc(Nc2nc(NC3CCCCCC3)nc(OC3CCCNC3)n2)cc1Cl (centres unmarked)
- cell death under Inflammation Data ([1]; at 10 uM): 20%
- inhibition at 10 µM ([2]; at 10 uM): 60%
- IC50 [3]: 4.9 µM

SMILES: COc1ccc(Nc2nc(NC3CCCCCC3)nc(OC3CCNCC3)n2)cc1Cl
- cell death under Inflammation Data ([1]; at 10 uM): 20%
- inhibition at 10 µM ([2]; at 10 uM): 85%
- IC50 [3]: 1.85 µM

SMILES: COc1ccc(Nc2nc(NC3CCCCCC3)nc(OCC3CCCN3C)n2)cc1Cl (centres unmarked)
- cell death under Inflammation Data ([1]; at 10 uM): total cell death
- Inflammation Data, inhibition ([2]; at 10 uM): complete inhibition
- IC50 [3]: 5.25 µM

SMILES: COc1ccc(Nc2nc(NC3CCCCCC3)nc(OC3CCN(C)CC3)n2)cc1Cl
- cell death under Inflammation Data ([1]; at 10 uM): total cell death
- cell morphology change / cell death observed under Proliferation Data (words with concentration) [1, 4]: rounding at 5 & 10 uM
- inhibition at 10 µM ([2]; at 10 uM): 95%

SMILES: CN1CCC(N(C)c2nc(Nc3ccc(OCc4ccccc4)c(Cl)c3)nc(NC3CCCCCC3)n2)CC1
- cell death under Inflammation Data ([1]; 5 uM): 30%
- cell death under Inflammation Data ([1]; 10 uM): totaldeath
- Inflammation Data (result in words) ([2]; at 1 uM): Not active

SMILES: CN(c1nc(Nc2ccc(OCc3ccccc3)c(Cl)c2)nc(NC2CCCCCC2)n1)C1CCNCC1
- cell death under Inflammation Data ([1]; 5 uM): 50%
- cell death under Inflammation Data ([1]; 10 uM): total cell death
- Inflammation Data (result in words) ([2]; at 1 uM): not active
- inhibition at 5 µM ([2]; at 5 uM): 58%

SMILES: CN(c1nc(Nc2ccc(O)cc2)nc(NC2CCCCCC2)n1)C1CCNCC1
- cell death under Inflammation Data ([1]; 5 uM): 20%
- cell death under Inflammation Data ([1]; 10 uM): total cell death
- inhibition at 5 µM ([2]; at 5 uM): 50%

SMILES: COc1ccc(Nc2nc(NC3CCCCCC3)nc(NC3CCN(Cc4ccccc4)CC3)n2)cc1F
- cell death under Inflammation Data ([1]; at 5 uM): 25%
- cell death under Inflammation Data ([1]; at 10 uM): total cell death
- cell morphology change / cell death observed under Proliferation Data (words with concentration) [1, 4]: cell bluntingat 3 uM; also recorded: rounding at 5uM
- inhibition at 5 µM ([2]; at 5 uM): 43%
- inhibition at 10 µM ([2]; at 10 uM): 97%

SMILES: COc1ccc(Nc2nc(NC3CCCCCC3)nc(NC3CCNCC3)n2)cc1
- cell death under Inflammation Data ([1]; at 5 uM): 20%
- cell death under Inflammation Data ([1]; at 10 uM): > 50%
- inhibition at 5 µM ([2]; at 5 uM): 69%
- inhibition at 10 µM ([2]; at 10 uM): 88%

SMILES: COc1ccc(Nc2nc(Cl)nc(Nc3ccc(OC)c(F)c3)n2)cc1F
- Inflammation Data, inhibition ([2]; at 5 uM): noeffect
- inhibition at 10 µM ([2]; at 10 uM): 20%
- Proliferation Data (result in words) ([3]; concentration not given): Not active

- melting point: 78 to 80 °C
SMILES: COc1ccc(Nc2nc(NC3CCCCCC3)nc(N3CCSCC3)n2)cc1Cl

- melting point: 98 °C
SMILES: COc1ccc(Nc2nc(Cl)nc(OCC3CCCCC3)n2)cc1F [Compound 114, (4-Chloro-6-cyclohexylmethoxy-[1,3,5]triazin-2-yl)-(3-fluoro-4-methoxy-phenyl)-amine]

- melting point: 181 °C
SMILES: COc1ccc(Nc2nc(Nc3ccc(OC)c(F)c3)nc(OCC3CCCCC3)n2)cc1F [Compound 115, 6-Cyclohexylmethoxy-N,N′-bis-(3-fluoro-4-methoxy-phenyl)-1,3,5-triazine-2,4-diamine]

- melting point: 59 °C
SMILES: CCN1CCCC1CNc1nc(Nc2ccc(OC)c(F)c2)nc(OCC2CCCCC2)n1 (centres unmarked) [Compound 116, 6-Cyclohexylmethoxy-N-(1-ethyl-pyrrolidin-2-ylmethyl)-N′-(3-fluoro-4-methoxy-phenyl)-[1,3,5]triazine-2,4-diamine]

- melting point: 114 °C
SMILES: COc1ccc(Nc2nc(Cl)nc(OCC3CCCCC3)n2)cc1Cl [Compound 117, (4-Chloro-6-cyclohexylmethoxy-[1,3,5]triazin-2-yl)-(3-chloro-4-methoxy-phenyl)-amine]

- melting point: 188 °C
SMILES: COc1ccc(Nc2nc(Nc3ccc(OC)c(Cl)c3)nc(OCC3CCCCC3)n2)cc1Cl [Compound 118, N,N′-Bis-(3-chloro-4-methoxy-phenyl)-6-cyclohexylmethoxy-1,3,5-triazine-2,4-diamine]

- melting point: 183 °C
SMILES: COc1ccc(Nc2nc(Nc3ccc(OC)c(Cl)c3)nc(NC3CCCCCC3)n2)cc1Cl [Compound 122, N,N′-Bis-(3-chloro-4-methoxy-phenyl)-N″-cycloheptyl-[1,3,5]triazine-2,4,6-triamine]

- melting point: 134 °C
SMILES: COc1ccc(Nc2nc(Cl)nc(Cl)n2)cc1F [Compound 124, (4,6-Dichloro-[1,3,5]triazin-2-yl)-(3-fluoro-4-methoxy-phenyl)-amine]

SMILES: CCN1CCCC1CNc1nc(NCC2CCCCC2)nc(Nc2ccc(OC)c(F)c2)n1 (centres unmarked) [Compound 126, N-Cyclohexylmethyl-N′-(1-ethyl-pyrrolidin-2-ylmethyl)-N″-(3-fluoro-4-methoxy-phenyl)-[1,3,5]triazine-2,4,6-triamine]
- melting point: 72 °C

- melting point: > 310 °C
SMILES: COc1ccc(Nc2nc(O)nc(NC3CCCCCC3)n2)cc1Cl [Compound 147, 4-(3-Chloro-4-methoxy-phenylamino)-6-cycloheptylamino-1,3,5-triazin-2-ol]

- melting point: 138 to 140 °C
SMILES: COc1ccc(Nc2nc(NC3CCCCCC3)nc(OC3CCCN(C(C)=O)C3)n2)cc1Cl (centres unmarked) [Compound E20, 1-[3-{4-(3-chloro-4-methoxyanilino)-6-cycloheptylamino-1,3,5-triazine-2-yloxy}piperidino]-1-ethanone]

- melting point: 136 to 138 °C
SMILES: COc1ccc(Nc2nc(NC3CCCCCC3)nc(OC(C)C)n2)cc1Cl [Compound E21, N^2-(3-chloro-4-methoxyphenyl)-N^4-cycloheptyl-6-isopropoxy-1,3,5-triazine-2,4-diamine]

SMILES: COc1ccc(Nc2nc(NC3CCCCCC3)nc(OC3CCCN(C(C)=O)C3)n2)cc1Cl (centres unmarked) [drawing 992]
- Inflammation Data, inhibition ([2]; at 10 uM): complete inhibition at 10 uM
- Proliferation Data (result in words) ([3]; 5 & 10 uM screens): Not active at 5 & 10 uM

SMILES: COc1ccc(Nc2nc(NC3CCCCCC3)nc(OC(C)C)n2)cc1Cl [drawing 993]
- inhibition at 10 µM ([2]; at 10 uM): < 25%
- Proliferation Data (result in words) ([3]; concentration not given): Not active

SMILES: COc1ccc(Nc2nc(NC3CCCCCC3)nc(OCC3CCCN3)n2)cc1Cl (centres unmarked) [drawing 994]
- inhibition at 10 µM ([2]; at 10 uM): 75%
- Proliferation Data (result in words) ([3]; 5 & 10 uM screens): Not active at 5 & 10 uM

SMILES: COc1ccc(Nc2nc(NC3CCCCCC3)nc(N3CCSCC3)n2)cc1Cl [drawing 999]
- Inflammation Data (result in words) ([2]; concentration not given): Not Active
- Proliferation Data (result in words) ([3]; concentration not given): Not active

SMILES: COc1ccc(Nc2nc(NC3CCCCCC3)nc(Oc3ccccc3F)n2)cc1Cl [drawing 1000]
- Inflammation Data (result in words) ([2]; concentration not given): Not Active
- Proliferation Data (result in words) ([3]; concentration not given): Not active

SMILES: CN1CCC(N(C)c2nc(Nc3ccc(O)c(Cl)c3)nc(NC3CCCCCC3)n2)CC1 [drawing 1008]
- cell death under Inflammation Data ([1]; 10 uM): total cell death
- cell morphology change / cell death observed under Proliferation Data (words with concentration) ([1]; human, 24 h): cell bluntingat 3 to 10 uM
- inhibition at 5 µM ([2]; at 5 uM): 64%
- inhibition at 10 µM ([2]; at 10 uM): 84%

SMILES: COc1ccc(Nc2nc(NC3CCCCCC3)nc(NC3CCN(Cc4ccccc4)CC3)n2)cc1Cl [drawing 1010]
- cell death under Inflammation Data ([1]; at 5 uM): 20%
- cell death under Inflammation Data ([1]; at 10 uM): > 50%
- cell morphology change / cell death observed under Proliferation Data (words with concentration) [1, 4]: cell blunting at 1 uM; also recorded: rounding at 5 uM
- inhibition at 5 µM ([2]; at 5 uM): 37%
- inhibition at 10 µM ([2]; at 10 uM): 41%
